Measured values: US11230538B2, “Herbicides” (SYNGENTA PARTICIPATIONS AG, priority 2016, dated 2022)

Assays:
Assay type in all cases: in vivo
[1] = system: Amaranthus retroflexus (AMARE); experiment: B1 Pre-emergence herbicidal activity; set-up: key: 5=total damage to plant; 0=no damage to plant; conditions: pre-emergence application, Rate 1000 g/ha, evaluated after 13 days, Test 1b
In short: (§1)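 Pots of sown seeds were sprayed one day after sowing, pre-emergence, with compound in acetone/water (50:50) containing 0.5% Tween 20. Plants were grown in a glasshouse at 24/16 °C day/night, 14 h light and 65% humidity. Damage was scored after 13 days on a 0 (none) to 5 (total) scale.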

Zea Mays (ZEAMX) [2] = experiment: B1 Pre-emergence herbicidal activity; set-up: key: 5=total damage to plant; 0=no damage to plant; conditions: pre-emergence application, Rate 1000 g/ha, evaluated after 13 days, Test 1b
In short: as §1

[3] = system: Echinochloa crus-galli (ECHCG); experiment: B1 Pre-emergence herbicidal activity; set-up: key to Pre-emergence herbicidal activity, ECHCG (damage score 0-5): 5=total damage to plant; 0=no damage to plant; conditions: pre-emergence application, evaluated after 13 days; for ECHCG damage score (0-5): Rate 1000 g/ha, Test 1b
In short: as §1

Lolium perenne (LOLPE) [4] = experiment: B1 Pre-emergence herbicidal activity; conditions: pre-emergence application, evaluated after 13 days; for LOLPE damage score (0-5): Rate 1000 g/ha, Test 1b
In short: as §1

[5] = system: Abutilon theophrasti (ABUTH); experiment: B1 Pre-emergence herbicidal activity; conditions: pre-emergence application, Rate 1000 g/ha, evaluated after 13 days, Test 1b
Procedure: Seeds of a variety of test species were sown in standard soil in pots: Triticum aestivium (TRZAW), Avena fatua (AVEFA), Alopecurus myosuroides (ALOMY), Echinochloa crus-galli (ECHCG), Lolium perenne (LOLPE), Zea Mays (ZEAMX), Abutilon theophrasti (ABUTH), Amaranthus retroflexus (AMARE) and Setaria fabenr (SETFA). After cultivation for one day (pre-emergence) under controlled conditions in a glasshouse (at 24/16° C., day/night; 14 hours light; 65% humidity), the plants were sprayed with an aqueous spray solution derived from the formulation of the technical active ingredient in acetone I water (50:50) solution containing 0.5% Tween 20 (polyoxyethelyene sorbitan monolaurate, CAS RN 9005-64-5). The test plants were then grown in a glasshouse under controlled conditions (at 24/16° C., day/night; 14 hours light; 65% humidity) and watered twice daily. After 13 days, the test was evaluated (5=total damage to plant; 0=no damage to plant).

Setaria fabenr (SETFA) = experiment: B1 Pre-emergence herbicidal activity; set-up: key to Pre-emergence herbicidal activity, SETFA (damage score 0-5): 5=total damage to plant; 0=no damage to plant; conditions: pre-emergence application, evaluated after 13 days; for SETFA damage score (0-5): Rate 1000 g/ha, Test 1b
In short: as §1

[6] = system: Abutilon theophrasti (ABUTH); experiment: B2 Post-emergence herbicidal activity; conditions: post-emergence application, Rate 1000 g/ha, evaluated after 13 days, Test 2b
In short: (§2)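 Plants grown 8 days in a glasshouse (24/16° C day/night, 14 h light, 65% humidity) were sprayed post-emergence with active ingredient formulated in acetone/water (50:50) containing 0.5% Tween 20. Damage was scored after 13 days on a 0–5 scale (5 = total damage).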

[7] = system: Amaranthus retroflexus (AMARE); experiment: B2 Post-emergence herbicidal activity; conditions: post-emergence application, Rate 1000 g/ha, evaluated after 13 days, Test 2b
In short: as §2

[8] = system: Echinochloa crus-galli (ECHCG); experiment: B2 Post-emergence herbicidal activity; conditions: post-emergence application, evaluated after 13 days; for ECHCG damage score (0-5): Rate 1000 g/ha, Test 2b
In short: as §2

Lolium perenne (LOLPE) [9] = experiment: B2 Post-emergence herbicidal activity; conditions: post-emergence application, evaluated after 13 days; for LOLPE damage score (0-5): Rate 1000 g/ha, Test 2b
In short: as §2

Setaria fabenri (SETFA) = experiment: B2 Post-emergence herbicidal activity; set-up: key: 5=total damage to plant; 0=no damage to plant; conditions: post-emergence application, evaluated after 13 days; for SETFA damage score (0-5): Rate 1000 g/ha, Test 2b
In short: as §2

Zea Mays (ZEAMX) [10] = experiment: B2 Post-emergence herbicidal activity; set-up: key: 5=total damage to plant; 0=no damage to plant; conditions: post-emergence application, Rate 1000 g/ha, evaluated after 13 days, Test 2b
In short: as §2

[11] = system: Alopecurus myosuroides (ALOMY); experiment: B1 Pre-emergence herbicidal activity; set-up: key: 5=total damage to plant; 0=no damage to plant; conditions: pre-emergence application, rate 1000 g/ha, evaluated after 13 days
In short: as §1

Avena fatua (AVEFA) [12] = experiment: B1 Pre-emergence herbicidal activity; set-up: key: 5=total damage to plant; 0=no damage to plant; conditions: pre-emergence application, rate 1000 g/ha, evaluated after 13 days
In short: as §1

[13] = system: Triticum aestivium (TRZAW); experiment: B1 Pre-emergence herbicidal activity; set-up: key: 5=total damage to plant; 0=no damage to plant; conditions: pre-emergence application, rate 1000 g/ha, evaluated after 13 days
In short: as §1

Avena fatua (AVEFA) [14] = experiment: B2 Post-emergence herbicidal activity; conditions: post-emergence application, rate 1000 g/ha, evaluated after 13 days
In short: as §2

[15] = system: Alopecurus myosuroides (ALOMY); experiment: B2 Post-emergence herbicidal activity; set-up: key: 5=total damage to plant; 0=no damage to plant; conditions: post-emergence application, rate 1000 g/ha, evaluated after 13 days
In short: as §2

[16] = system: Triticum aestivium (TRZAW); experiment: B2 Post-emergence herbicidal activity; set-up: key: 5=total damage to plant; 0=no damage to plant; conditions: post-emergence application, rate 1000 g/ha, evaluated after 13 days
In short: as §2

Structure (SMILES) | AMARE damage score (0-5) [1] | ZEAMX damage score (0-5) (Zea Mays (ZEAMX) [2]) | ECHCG damage score (0-5) [3] | LOLPE damage score (0-5) (Lolium perenne (LOLPE) [4]) | ABUTH damage score (0-5) [5] | SETFA damage score (0-5) (Setaria fabenr (SETFA)) | ABUTH damage score (0-5) [6] | AMARE damage score (0-5) [7] | ECHCG damage score (0-5) [8] | LOLPE damage score (0-5) (Lolium perenne (LOLPE) [9]) | SETFA damage score (0-5) (Setaria fabenri (SETFA)) | ZEAMX damage score (0-5) (Zea Mays (ZEAMX) [10]) | also measured
CC(=O)Nc1ccc(-c2cncc(F)c2)nc1C(F)(F)F [Compound C9, N-[6-(5-fluoro-3-pyridyl)-2-(trifluoromethyl)-3-pyridyl]acetamide] | 2 | 5 | 3 | 2 | 1 | 4 | 2 | 2 | 4 | 3 | 5 | 5 | –
CC(C)C(=O)Nc1ccc(-c2cncc(F)c2)nc1C(F)(F)F [Compound C10, N-[6-(5-fluoro-3-pyridyl)-2-(trifluoromethyl)-3-pyridyl]-2-methyl-propanamide] | 0 | 5 | 4 | 2 | 1 | 4 | 1 | 1 | 4 | 3 | 4 | 5 | –
CCC(=O)Nc1ccc(-c2cncc(F)c2)nc1C#N [Compound C115] | – | – | – | – | – | – | – | – | – | – | – | – | Pre-emergence herbicidal activity, ALOMY (damage score 0-5) [11]: 0; Pre-emergence herbicidal activity, AVEFA (damage score 0-5) (Avena fatua (AVEFA) [12]): 0; Pre-emergence herbicidal activity, TRAZW (damage score 0-5) [13]: 0; Pre-emergence herbicidal activity, ECHCG (damage score 0-5) ([3]; rate 1000 g/ha): 5; Pre-emergence herbicidal activity, LOLPE (damage score 0-5) (Lolium perenne (LOLPE) [4]; rate 1000 g/ha): 1; Pre-emergence herbicidal activity, SETFA (damage score 0-5) (Setaria fabenr (SETFA); rate 1000 g/ha): 5; Post-emergence herbicidal activity, AVEFA (damage score 0-5) (Avena fatua (AVEFA) [14]): 2; Post-emergence herbicidal activity, ECHCG (damage score 0-5) ([8]; rate 1000 g/ha): 4; Post-emergence herbicidal activity, LOLPE (damage score 0-5) (Lolium perenne (LOLPE) [9]; rate 1000 g/ha): 1; Post-emergence herbicidal activity, ALOMY (damage score 0-5) [15]: 0; Post-emergence herbicidal activity, SETFA (damage score 0-5) (Setaria fabenri (SETFA); rate 1000 g/ha): 5; Post-emergence herbicidal activity, TRAZW (damage score 0-5) [16]: 0
